Values quoted from earlier work, collected in patent US10458996B1, “Methods for determining clinical response to TNF-alpha and/or JAK inhibitors in subjects with inflammatory diseases” (Beth Israel Deaconess Medical Center, Inc., priority 2016, dated 2019).

Test system: patients with moderate-to-severe CD
Conditions: week 24 of intervention; cited from earlier work

In the case of `Cn1cnc([N+](=O)[O-])c1Sc1ncnc2nc[nH]c12` [azathioprine], the Mucosal healing rates is listed as 16.5%.
